Source: ChEMBL document CHEMBL5316312, “Novel Diarylthioether Compounds as Agents for the Treatment of Chagas Disease” (J Med Chem, 2023)
Converted amounts (≈) assume the structure as drawn. The source made the active and inactive calls. The rule behind the calls is not given here.

Tests used:
[1] = Cytotoxicity against rat H9c2 cells assessed as reduction in cell viability measured for 72 hrs; type: toxicity, cell-based
Trypanosoma cruzi [2] = test: Antitrypanosomal activity against Trypanosoma cruzi Tulahuen trypomastigotes assessed as reduction in parasite growth incubated for 4 hrs by cell counter analysis; type: functional, organism-based
HepG2 = test: Cytotoxicity against human HepG2 cells assessed as reduction in cell viability; type: functional, cell-based
Trypanosoma cruzi [3] = test: Antitrypanosomal activity against Trypanosoma cruzi Tulahuen amastigotes infected in monkey LLC-MK2 cells assessed reduction in amastigotes per 100 cells by measuring rate of kill time by counting analysis; type: functional
Trypanosoma cruzi [4] = test: Antitrypanosomal activity against Trypanosoma cruzi Tulahuen amastigotes infected in monkey LLC-MK2 cells assessed as reduction in amastigotes per 100 cells by cell counting analysis; type: functional, organism-based
[5] = Equilibrium solubility of the compound in FaSSIF at pH 6.5; type: physicochemical
[6] = Cytotoxicity against monkey LLC-MK2 cells assessed as reduction in cell viability; type: toxicity, cell-based; conditions: rhesus monkey (Macaca mulatta)
[7] = molecular target: Sterol 14-alpha demethylase (Trypanosoma cruzi (strain CL Brener), UniProt Q7Z1V1); test: Inhibition of Trypanosoma cruzi CYP51
[8] = molecular target: Voltage-gated inwardly rectifying potassium channel KCNH2 (Homo sapiens, UniProt Q12809); test: Inhibition of hERG cardiac ion channel; type: toxicity
[9] = Microsomal stability in human liver microsome measured assessed as half life upto 30 mins by HPLC-MS/MS analysis; type: ADME; conditions: liver microsomes
[10] = Cytotoxicity against mouse NIH3T3 cells assessed as reduction in cell viability; type: toxicity, cell-based
[11] = Microsomal stability in CD-1 mouse liver microsome measured assessed as half life upto 30 mins by HPLC-MS/MS analysis; type: ADME; conditions: liver microsomes
[12] = Microsomal stability in CD-1 mouse liver microsome measured assessed as intrinsic clearance upto 30 mins by HPLC-MS/MS analysis; type: ADME; conditions: microsomes, 0.5 h
Trypanosoma cruzi [13] = test: Antitrypanosomal activity against Trypanosoma cruzi Tulahuen strain trypomastigotes infected in rat H9c2 cells; type: functional, organism-based
[14] = Microsomal stability in human liver microsome measured assessed as intrinsic clearance upto 30 mins by HPLC-MS/MS analysis; type: ADME; conditions: microsomes, 0.5 h
Trypanosoma cruzi [15] = test: In vivo antitrypanosomal activity against Trypanosoma cruzi infected in BALB/c mouse model assessed as reduction in parasitemia at 30 mg/kg, po preincubated for 4 days post infection followed by compound treatment and measured after 5 to 10 days; type: functional; design: scale not given: the % may be the effect or the level left; conditions: time 5-10 day
[16] = Cmax in BALB/c mouse at 50 mg/kg, po measured at 15 to 1440 mins by LC-MS/MS analysis; type: ADME, organism-based; design: time lower 15 min, dose 50 mg/kg, time upper 1440 min, route po; conditions: in vivo
[17] = Toxicity in BALB/c mouse assessed as reduction in body weight loss at 50 mg/kg, po bid; type: organism-based; design: scale not given: the % may be the effect or the level left; conditions: in vivo
[18] = AUC (0 to t) in BALB/c mouse at 50 mg/kg, po measured at 15 to 1440 mins by LC-MS/MS analysis; type: ADME, organism-based; design: dose 50 mg/kg, time upper 1440 min, time lower 15 min, route po; conditions: in vivo
[19] = AUC in BALB/c mouse at 50 mg/kg, po measured at 15 to 1440 mins by LC-MS/MS analysis; type: ADME, organism-based; design: time upper 1440 min, dose 50 mg/kg, time lower 15 min, route po; conditions: in vivo
[20] = Tmax in BALB/c mouse at 50 mg/kg, po measured at 15 to 1440 mins by LC-MS/MS analysis; type: ADME, organism-based; conditions: in vivo, time 15-1440 min

Sterol 14-alpha demethylase, sequence (Q7Z1V1 whole entry): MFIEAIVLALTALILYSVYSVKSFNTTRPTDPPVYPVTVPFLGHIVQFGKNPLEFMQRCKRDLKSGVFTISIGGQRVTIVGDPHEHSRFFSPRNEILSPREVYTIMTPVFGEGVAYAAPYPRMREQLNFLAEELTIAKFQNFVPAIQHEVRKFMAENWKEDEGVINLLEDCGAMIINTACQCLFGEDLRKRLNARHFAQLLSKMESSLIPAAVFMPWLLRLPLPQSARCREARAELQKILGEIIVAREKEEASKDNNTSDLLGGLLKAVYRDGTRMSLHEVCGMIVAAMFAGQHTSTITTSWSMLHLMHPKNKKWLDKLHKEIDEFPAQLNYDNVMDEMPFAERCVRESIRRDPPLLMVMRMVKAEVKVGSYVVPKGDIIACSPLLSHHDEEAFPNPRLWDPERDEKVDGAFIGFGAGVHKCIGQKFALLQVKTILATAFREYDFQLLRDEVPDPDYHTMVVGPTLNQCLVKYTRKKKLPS
Voltage-gated inwardly rectifying potassium channel KCNH2, sequence (Q12809 whole entry): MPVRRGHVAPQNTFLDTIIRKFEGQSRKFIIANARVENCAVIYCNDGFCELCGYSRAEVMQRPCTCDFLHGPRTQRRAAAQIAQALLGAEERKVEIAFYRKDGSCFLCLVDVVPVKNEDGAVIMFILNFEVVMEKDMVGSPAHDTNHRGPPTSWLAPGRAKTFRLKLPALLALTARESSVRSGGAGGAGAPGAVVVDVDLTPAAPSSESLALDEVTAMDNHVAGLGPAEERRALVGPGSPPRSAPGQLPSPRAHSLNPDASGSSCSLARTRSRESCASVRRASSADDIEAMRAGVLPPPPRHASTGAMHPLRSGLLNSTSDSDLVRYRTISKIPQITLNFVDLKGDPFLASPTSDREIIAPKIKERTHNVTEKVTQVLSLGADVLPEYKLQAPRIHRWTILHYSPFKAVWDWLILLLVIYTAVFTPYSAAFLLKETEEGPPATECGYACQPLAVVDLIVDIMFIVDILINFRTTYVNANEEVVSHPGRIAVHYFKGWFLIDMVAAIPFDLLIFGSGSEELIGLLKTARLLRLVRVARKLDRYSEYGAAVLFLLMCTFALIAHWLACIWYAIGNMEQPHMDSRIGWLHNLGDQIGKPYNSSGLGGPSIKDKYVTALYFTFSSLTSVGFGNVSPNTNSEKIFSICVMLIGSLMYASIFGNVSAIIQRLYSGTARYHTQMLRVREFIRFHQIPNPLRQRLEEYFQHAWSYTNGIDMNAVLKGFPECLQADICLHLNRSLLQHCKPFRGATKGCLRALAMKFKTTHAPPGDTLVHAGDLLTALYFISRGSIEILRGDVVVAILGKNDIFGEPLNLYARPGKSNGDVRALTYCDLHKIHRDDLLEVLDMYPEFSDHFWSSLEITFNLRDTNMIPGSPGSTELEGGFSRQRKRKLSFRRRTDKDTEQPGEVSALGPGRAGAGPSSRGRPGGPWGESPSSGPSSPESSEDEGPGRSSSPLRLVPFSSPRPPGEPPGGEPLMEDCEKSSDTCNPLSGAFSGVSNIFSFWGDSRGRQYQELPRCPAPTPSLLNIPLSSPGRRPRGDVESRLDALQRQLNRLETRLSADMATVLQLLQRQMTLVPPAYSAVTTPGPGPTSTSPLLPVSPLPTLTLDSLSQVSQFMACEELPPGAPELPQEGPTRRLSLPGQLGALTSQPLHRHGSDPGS

N#Cc1cc(N2CCCC2=O)ccc1Sc1cccc(CO)c1
IC50 at 72 h [1]: > 50.1 µM
IC50 (Trypanosoma cruzi [2]): 31.6 µM

Cc1cccc(CO)c1Sc1ccc(N2CCCC2=O)cc1C(F)(F)F
IC50 at 72 h [1]: > 50.1 µM
IC50 (Trypanosoma cruzi [2]): 0.794 µM

O=C(O)c1cc(N2CCCC2=O)ccc1Sc1ccccc1CO
IC50 at 72 h [1]: > 50.1 µM
IC50 (Trypanosoma cruzi [2]): > 50.1 µM

COc1cccc(CO)c1Sc1ccc(N2CCCC2=O)cc1C(F)(F)F
IC50 at 72 h [1]: > 50.1 µM
IC50 (Trypanosoma cruzi [2]): 20 µM

O=C1CCCN1c1ccc(Sc2ccc(F)cc2CO)c(C(F)(F)F)c1
IC50 at 72 h [1]: > 50.1 µM

O=C1CCCN1c1ccc(Sc2ccccc2CO)c(F)c1
IC50 at 72 h [1]: > 50.1 µM
IC50 (Trypanosoma cruzi [2]): 5.01 µM

N#Cc1cc(N2CCCC2=O)ccc1Sc1ccccc1CO
IC50 (HepG2): > 100 µM
Time (Trypanosoma cruzi [3]): >24 h
IC50 (Trypanosoma cruzi [4]): 0.251 µM
IC50 at 72 h [1]: 0.447 µM
solubility thermodynamic [5]: 56 µg/mL (≈ 173 µM)
IC50 [6]: 0.447 µM
Activity (Trypanosoma cruzi [2]): inactive
IC50 [7]: > 10 µM
IC50 [8]: > 50.1 µM
half-life [9]: 15 min
IC50 [10]: > 50.1 µM
half-life [11]: 54 min
CLH [12]: 1.36 mL/min/g
IC50 (Trypanosoma cruzi [13]): 0.24 µM
CLH [14]: 4.62 mL/min/g

Cc1cc(N2CCCC2=O)ccc1Sc1ccccc1CO
IC50 at 72 h [1]: > 50.1 µM
IC50 (Trypanosoma cruzi [2]): 6.31 µM

COc1ccc(Sc2ccc(N3CCCC3=O)cc2C(F)(F)F)c(CO)c1
IC50 at 72 h [1]: > 50.1 µM
IC50 (Trypanosoma cruzi [2]): 1 µM

O=C1CCCN1c1ccc(Sc2cccc(F)c2CO)c(C(F)(F)F)c1
IC50 at 72 h [1]: > 50.1 µM
IC50 (Trypanosoma cruzi [2]): 0.02 µM

COc1ccc(CO)c(Sc2ccc(N3CCCC3=O)cc2C(F)(F)F)c1
IC50 at 72 h [1]: > 50.1 µM
IC50 (Trypanosoma cruzi [2]): 15.8 µM

O=C1CCCN1c1ccc(Sc2ccccc2CO)cc1
IC50 at 72 h [1]: > 50.1 µM
IC50 (Trypanosoma cruzi [2]): > 50.1 µM

COc1cccc(Sc2ccc(N3CCCC3=O)cc2C(F)(F)F)c1CO
IC50 at 72 h [1]: > 50.1 µM
IC50 (Trypanosoma cruzi [2]): 25.1 µM

CN(C)C(=O)c1cc(N2CCCC2=O)ccc1Sc1ccccc1CO
IC50 at 72 h [1]: > 50.1 µM
IC50 (Trypanosoma cruzi [2]): 50.1 µM

O=C1CCCN1c1ccc(Sc2c(Cl)cccc2CO)c(C(F)(F)F)c1
IC50 at 72 h [1]: > 50.1 µM
IC50 (Trypanosoma cruzi [2]): 1.26 µM

Cc1ccc(Sc2ccc(N3CCCC3=O)cc2C(F)(F)F)c(CO)c1
IC50 at 72 h [1]: > 50.1 µM
IC50 (Trypanosoma cruzi [2]): 6.31 µM

O=C1CCCN1c1ccc(Sc2ccccc2CO)c(C(F)(F)F)c1
Activity (Trypanosoma cruzi [15]): 70%
IC50 at 72 h [1]: > 50.1 µM
IC50 (Trypanosoma cruzi [2]): 0.0316 µM
half-life [9]: 2.11 min
Cmax [16]: 301 ng/mL
Activity [17]: 16%
half-life [11]: 4.78 min
CLH [12]: 31.49 mL/min/g
AUC(0-t) [18]: 485 ng·h/mL
AUC [19]: 530 ng·h/mL
Tmax [20]: 30 min
CLH [14]: 11.51 mL/min/g

N#Cc1cc(N2CCCC2=O)ccc1Oc1ccccc1CO
IC50 at 72 h [1]: > 50.1 µM
IC50 (Trypanosoma cruzi [2]): 2.51 µM

O=C1CCCN1c1ccc(Sc2ncccc2CO)c(C(F)(F)F)c1
IC50 at 72 h [1]: > 50.1 µM
IC50 (Trypanosoma cruzi [2]): 20 µM

Cc1cccc(Sc2ccc(N3CCCC3=O)cc2C(F)(F)F)c1CO
IC50 at 72 h [1]: > 50.1 µM
IC50 (Trypanosoma cruzi [2]): 0.316 µM

O=C1CCCN1c1ccc(Sc2cc(F)ccc2CO)c(C(F)(F)F)c1
IC50 at 72 h [1]: > 50.1 µM
IC50 (Trypanosoma cruzi [2]): 0.126 µM

O=C1CCCN1c1ccc(S(=O)(=O)c2ccccc2CO)c(C(F)(F)F)c1
IC50 at 72 h [1]: > 50.1 µM
IC50 (Trypanosoma cruzi [2]): 0.251 µM
half-life [9]: 3.32 min
Cmax [16]: 175 ng/mL
half-life [11]: 4.39 min
CLH [12]: 20 mL/min/g
AUC(0-t) [18]: 208 ng·h/mL
Tmax [20]: 30 min
CLH [14]: 12.5 mL/min/g

N#Cc1cc(N2CCCC2=O)ccc1Sc1ccccc1C(=O)O
IC50 at 72 h [1]: > 50.1 µM
IC50 (Trypanosoma cruzi [2]): 0.794 µM

O=C1CCCN1c1ccc(Sc2ccccc2CO)c(Cl)c1
IC50 at 72 h [1]: > 50.1 µM
IC50 (Trypanosoma cruzi [2]): 0.2 µM

O=C1CCCN1c1ccc(Sc2cccc(Cl)c2CO)c(C(F)(F)F)c1
IC50 at 72 h [1]: > 50.1 µM
IC50 (Trypanosoma cruzi [2]): 0.316 µM

O=C1CCCN1c1ccc(Sc2ccccc2CO)cc1C(F)(F)F
IC50 at 72 h [1]: > 50.1 µM
IC50 (Trypanosoma cruzi [2]): 7.94 µM

O=C1CCCN1c1ccc(Sc2ccc(Cl)cc2CO)c(C(F)(F)F)c1
IC50 at 72 h [1]: 31.6 µM
IC50 (Trypanosoma cruzi [2]): 0.158 µM

O=C1CCCN1c1ccc(Sc2ccccc2CO)c(OC(F)(F)F)c1
IC50 at 72 h [1]: > 50.1 µM
IC50 (Trypanosoma cruzi [2]): 2.51 µM

O=C(Cn1ccnc1[N+](=O)[O-])NCc1ccccc1 [BENZNIDAZOLE]
IC50 at 72 h [1]: 31.6 µM
IC50 (Trypanosoma cruzi [2]): 1.26 µM

O=C1CCCN1c1ccc(Sc2ccccc2CO)nc1
IC50 at 72 h [1]: > 50.1 µM
IC50 (Trypanosoma cruzi [2]): 12.6 µM

CCc1ccccc1Sc1ccc(N2CCCC2=O)cc1C(F)(F)F
IC50 at 72 h [1]: 15.8 µM
IC50 (Trypanosoma cruzi [2]): 20 µM

COC(=O)c1cc(N2CCCC2=O)ccc1Sc1ccccc1CO
IC50 at 72 h [1]: > 50.1 µM
IC50 (Trypanosoma cruzi [2]): 31.6 µM

O=C1CCCN1c1ccc(Sc2cc(Cl)ccc2CO)c(C(F)(F)F)c1
IC50 at 72 h [1]: 39.8 µM
IC50 (Trypanosoma cruzi [2]): 6.31 µM

Cc1ccc(CO)c(Sc2ccc(N3CCCC3=O)cc2C(F)(F)F)c1
IC50 at 72 h [1]: > 50.1 µM
IC50 (Trypanosoma cruzi [2]): 15.8 µM

COCc1ccccc1Sc1ccc(N2CCCC2=O)cc1C#N
IC50 at 72 h [1]: 31.6 µM
IC50 (Trypanosoma cruzi [2]): 6.31 µM

O=C1CCCN1c1ccc(Sc2ccccc2O)c(C(F)(F)F)c1
IC50 at 72 h [1]: 15.8 µM
IC50 (Trypanosoma cruzi [2]): 2 µM
